Assay results as given in the supplement of paper PMC10627819.

What was measured:
Assay in all cases: fitness (endpoint OD595 vs no drug) (fraction); higher = more growth
S. aureus DSM 20231 = system: S. aureus DSM 20231
Procedure, shortened: (§1)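 In 384-well plates at 37 °C, cultures began at OD595 0.01 in 30 µl, with 55 µl used for S. pneumoniae. OD595 readings every 30 min for 14 h were corrected by the first reading. Fitness divides the stationary-phase transition optical density by the robust mean of no-drug control wells. The result is capped at 1.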

S. aureus Newman = system: S. aureus Newman
Procedure, shortened: as §1

S. pneumoniae D39V = system: S. pneumoniae D39V
Procedure, shortened: as §1

B. subtilis 168 = system: B. subtilis 168
Procedure, shortened: as §1
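Also: OD595 on entry to stationary phase over no-drug wells; at most 1.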

CO/N=C(\C(=O)N[C@@H]1C(=O)N2C(C(=O)O)=C(COC(C)=O)CS[C@H]12)c1csc(N)n1 [Cefotaxime] + CO/N=C(\C(=O)N[C@@H]1C(=O)N2C(C(=O)[O-])=C(C[N+]3(C)CCCC3)CS[C@H]12)c1csc(N)n1 [Cefepime]
Settings	fitness
S. aureus DSM 20231, first compound 0.039 µg/mL, partner 0.125 µg/mL	0.782
S. aureus DSM 20231, first compound 0.039 µg/mL, partner 0.25 µg/mL	0.847
S. aureus DSM 20231, first compound 0.039 µg/mL, partner 0.5 µg/mL	0.824
S. aureus DSM 20231, first compound 0.078 µg/mL, partner 0.125 µg/mL	0.754
S. aureus DSM 20231, first compound 0.078 µg/mL, partner 0.25 µg/mL	0.8
S. aureus DSM 20231, first compound 0.078 µg/mL, partner 0.5 µg/mL	0.772
S. aureus DSM 20231, first compound 0.156 µg/mL, partner 0.125 µg/mL	0.686
S. aureus DSM 20231, first compound 0.156 µg/mL, partner 0.25 µg/mL	0.73
S. aureus DSM 20231, first compound 0.156 µg/mL, partner 0.5 µg/mL	0.753
S. aureus DSM 20231, first compound 0.312 µg/mL, partner 0.125 µg/mL	0.664
S. aureus DSM 20231, first compound 0.312 µg/mL, partner 0.25 µg/mL	0.661
S. aureus DSM 20231, first compound 0.312 µg/mL, partner 0.5 µg/mL	0.71
S. aureus Newman, first compound 0.078 µg/mL, partner 0.125 µg/mL	0.75
S. aureus Newman, first compound 0.078 µg/mL, partner 0.25 µg/mL	0.695
S. aureus Newman, first compound 0.078 µg/mL, partner 0.5 µg/mL	0.696
S. aureus Newman, first compound 0.156 µg/mL, partner 0.125 µg/mL	0.618
S. aureus Newman, first compound 0.156 µg/mL, partner 0.25 µg/mL	0.577
S. aureus Newman, first compound 0.156 µg/mL, partner 0.5 µg/mL	0.519
S. aureus Newman, first compound 0.312 µg/mL, partner 0.125 µg/mL	0.469
S. aureus Newman, first compound 0.312 µg/mL, partner 0.25 µg/mL	0.415
S. aureus Newman, first compound 0.312 µg/mL, partner 0.5 µg/mL	0.36
S. aureus Newman, first compound 0.625 µg/mL, partner 0.125 µg/mL	0.206
S. aureus Newman, first compound 0.625 µg/mL, partner 0.25 µg/mL	0.178
S. aureus Newman, first compound 0.625 µg/mL, partner 0.5 µg/mL	0.0892
S. aureus Newman, first compound 1.25 µg/mL, partner 0.125 µg/mL	0.125
S. aureus Newman, first compound 1.25 µg/mL, partner 0.25 µg/mL	0.0934
S. aureus Newman, first compound 1.25 µg/mL, partner 0.5 µg/mL	0.049
S. aureus Newman, first compound 2.5 µg/mL, partner 0.125 µg/mL	0.0454
S. aureus Newman, first compound 2.5 µg/mL, partner 0.25 µg/mL	0.0501
S. aureus Newman, first compound 2.5 µg/mL, partner 0.5 µg/mL	0.0407
S. pneumoniae D39V, first compound 0.0018 µg/mL, partner 0.007 µg/mL	≥ 1
S. pneumoniae D39V, first compound 0.0018 µg/mL, partner 0.0078 µg/mL	≥ 1
S. pneumoniae D39V, first compound 0.0018 µg/mL, partner 0.014 µg/mL	≥ 1
S. pneumoniae D39V, first compound 0.0018 µg/mL, partner 0.0155 µg/mL	≥ 1
S. pneumoniae D39V, first compound 0.0018 µg/mL, partner 0.028 µg/mL	0.93
S. pneumoniae D39V, first compound 0.0018 µg/mL, partner 0.031 µg/mL	0.926
S. pneumoniae D39V, first compound 0.0035 µg/mL, partner 0.007 µg/mL	0.983
S. pneumoniae D39V, first compound 0.0035 µg/mL, partner 0.0078 µg/mL	0.998
S. pneumoniae D39V, first compound 0.0035 µg/mL, partner 0.014 µg/mL	0.994
S. pneumoniae D39V, first compound 0.0035 µg/mL, partner 0.0155 µg/mL	0.996
S. pneumoniae D39V, first compound 0.0035 µg/mL, partner 0.028 µg/mL	0.8
S. pneumoniae D39V, first compound 0.0035 µg/mL, partner 0.031 µg/mL	0.89
S. pneumoniae D39V, first compound 0.007 µg/mL, partner 0.007 µg/mL	0.94
S. pneumoniae D39V, first compound 0.007 µg/mL, partner 0.0078 µg/mL	0.921
S. pneumoniae D39V, first compound 0.007 µg/mL, partner 0.014 µg/mL	0.96
S. pneumoniae D39V, first compound 0.007 µg/mL, partner 0.0155 µg/mL	0.891
S. pneumoniae D39V, first compound 0.007 µg/mL, partner 0.028 µg/mL	0.629
S. pneumoniae D39V, first compound 0.007 µg/mL, partner 0.031 µg/mL	0.553

CN(C)[C@@H]1C(O)=C(C(N)=O)C(=O)[C@@]2(O)C(O)=C3C(=O)c4c(O)ccc(Cl)c4[C@@](C)(O)[C@H]3C[C@@H]12 [Chlortetracycline] + CCC[C@@H]1C[C@@H](C(=O)N[C@@H]([C@H]2O[C@H](SC)[C@H](O)[C@@H](O)[C@H]2O)[C@@H](C)O)N(C)C1 [Lincomycin]
Settings	fitness
B. subtilis 168, first compound 0.0475 µg/mL, partner 0.1 µg/mL	0.87
B. subtilis 168, first compound 0.0475 µg/mL, partner 0.2 µg/mL	0.862
B. subtilis 168, first compound 0.0475 µg/mL, partner 0.4 µg/mL	0.85
B. subtilis 168, first compound 0.095 µg/mL, partner 0.1 µg/mL	0.805
B. subtilis 168, first compound 0.095 µg/mL, partner 0.2 µg/mL	0.817
B. subtilis 168, first compound 0.095 µg/mL, partner 0.4 µg/mL	0.803
B. subtilis 168, first compound 0.19 µg/mL, partner 0.1 µg/mL	0.648
B. subtilis 168, first compound 0.19 µg/mL, partner 0.2 µg/mL	0.489
B. subtilis 168, first compound 0.19 µg/mL, partner 0.4 µg/mL	0.406
S. aureus DSM 20231, first compound 0.012 µg/mL, partner 0.1 µg/mL	0.472
S. aureus DSM 20231, first compound 0.012 µg/mL, partner 0.2 µg/mL	0.259
S. aureus DSM 20231, first compound 0.012 µg/mL, partner 0.4 µg/mL	0.0974
S. aureus DSM 20231, first compound 0.024 µg/mL, partner 0.1 µg/mL	0.233
S. aureus DSM 20231, first compound 0.024 µg/mL, partner 0.2 µg/mL	0.104
S. aureus DSM 20231, first compound 0.024 µg/mL, partner 0.4 µg/mL	0.0491
S. aureus DSM 20231, first compound 0.048 µg/mL, partner 0.1 µg/mL	0.0441
S. aureus DSM 20231, first compound 0.048 µg/mL, partner 0.2 µg/mL	0.0385
S. aureus DSM 20231, first compound 0.048 µg/mL, partner 0.4 µg/mL	0.0333
S. pneumoniae D39V, first compound 0.012 µg/mL, partner 0.215 µg/mL	0.802
S. pneumoniae D39V, first compound 0.012 µg/mL, partner 0.43 µg/mL	0.716
S. pneumoniae D39V, first compound 0.012 µg/mL, partner 0.86 µg/mL	0.268
S. pneumoniae D39V, first compound 0.024 µg/mL, partner 0.215 µg/mL	0.769
S. pneumoniae D39V, first compound 0.024 µg/mL, partner 0.43 µg/mL	0.666
S. pneumoniae D39V, first compound 0.024 µg/mL, partner 0.86 µg/mL	0.246
S. pneumoniae D39V, first compound 0.048 µg/mL, partner 0.215 µg/mL	0.636
S. pneumoniae D39V, first compound 0.048 µg/mL, partner 0.43 µg/mL	0.426
S. pneumoniae D39V, first compound 0.048 µg/mL, partner 0.86 µg/mL	0.222
S. pneumoniae D39V, first compound 0.375 µg/mL, partner 0.2 µg/mL	0.0295
S. pneumoniae D39V, first compound 0.375 µg/mL, partner 0.4 µg/mL	0.0454
S. pneumoniae D39V, first compound 0.375 µg/mL, partner 0.8 µg/mL	0.0386
S. pneumoniae D39V, first compound 0.75 µg/mL, partner 0.2 µg/mL	0.0393
S. pneumoniae D39V, first compound 0.75 µg/mL, partner 0.4 µg/mL	0.0417
S. pneumoniae D39V, first compound 0.75 µg/mL, partner 0.8 µg/mL	0.0458
S. pneumoniae D39V, first compound 1.5 µg/mL, partner 0.2 µg/mL	0.0273
S. pneumoniae D39V, first compound 1.5 µg/mL, partner 0.4 µg/mL	0.035
S. pneumoniae D39V, first compound 1.5 µg/mL, partner 0.8 µg/mL	0.0234

one replicate
Settings	fitness
B. subtilis 168, first compound 0.0475 µg/mL, partner 0.8 µg/mL	0.845
B. subtilis 168, first compound 0.0475 µg/mL, partner 1.6 µg/mL	0.761
B. subtilis 168, first compound 0.095 µg/mL, partner 0.8 µg/mL	0.692
B. subtilis 168, first compound 0.095 µg/mL, partner 1.6 µg/mL	0.5
B. subtilis 168, first compound 0.19 µg/mL, partner 0.8 µg/mL	0.0991
B. subtilis 168, first compound 0.19 µg/mL, partner 1.6 µg/mL	0.0613
S. aureus DSM 20231, first compound 0.006 µg/mL, partner 0.1 µg/mL	0.712
S. aureus DSM 20231, first compound 0.006 µg/mL, partner 0.2 µg/mL	0.483
S. aureus DSM 20231, first compound 0.006 µg/mL, partner 0.4 µg/mL	0.203
